Source: US6673968B1, “Method of producing n-(4,5-bis-methanesulfonyl-2-methyl-benzoyl)-guanidine, the hydrochloride thereof” (Merck Patent Gesellschaft mit beschränkter Haftung, priority 1999, dated 2004)
Values joined by “and” are separate entries in the source; they are usually repeats but may differ in a detail not shown here. Equal values may be shown once.

Key:
Format in all cases: in vivo
[1] = bioavailability after oral administration (AUCpo/AUCiv), dogs; settings: dog, plasma, oral vs intravenous, dose-standardised AUCpo/AUCiv, read-out: Bioavailabilities
Description: (§1) The absorption from the digestive tract after oral administration can be calculated by comparison of the concentrations of the administered active ingredient determined in the blood plasma after oral and intravenous administration (dose-standardised AUCpo/AUCiv) [AUC=area under the curve]. […] Bioavailabilities of the hydrochloride hydrate of from 88% to 99% were found in dogs, and 75% and 96% in 2 monkeys. Since the absorption rate is at least equal to or greater than the bioavailability determined, very good absorption has thus also been found in these animal species.

[2] = absorption from the digestive tract after oral administration (AUCpo/AUCiv), rat; settings: of the orally administered radioactively labelled substance
Description: as §1

[3] = bioavailability after oral administration (AUCpo/AUCiv), monkeys; settings: 2 monkeys (individual values); oral vs intravenous, dose-standardised AUCpo/AUCiv; hydrochloride hydrate
Description: as §1

Structure (SMILES): Cc1cc(S(C)(=O)=O)c(S(C)(=O)=O)cc1C(=O)NC(=N)N.Cl.O [hydrochloride hydrate, N-(4,5-bismethanesulfonyl-2-methylbenzoyl)guanidine, hydrochloride hydrate]
- bioavailability [1]: 88 to 99%
- absorption rate [2]: 98%
- Bioavailabilities [3]: 75% and 96%
